Measured values reported in patent publication US11278555B2, “Combinational therapies for treatment of cancer comprising a bacteriochlorophyll derivative” (Yeda Research and Development Co. Ltd., priority 2016, dated 2022).

Columns and labels:
[1] = system: splenic immune cells of 4T1-bearing mice; experiment: FACS profile of splenic immune cell populations in 4T1-bearing mice after STL-6014 PDT and Gemzar; assay type: in vivo
Procedure: • (i) Bacteriochlorophyll Derivatives—The Bchl derivatives and RGD-conjugates thereof were provided by Steba Biotech (Rehovot, Israel). […] Concentration was verified by spectrophotometric measurement. STL-7012 was provided as dipotassium salt. Working solution was prepared by dissolving STL-7012 K^+ salt in 5% mannitol solution (1 mg/ml). […] WST11 was supplied as a powder and kept in the dark at −20° C. Stock was prepared by dissolving WST11 in DDW containing 5% glucose and 0.67% mannitol, aliquoted and lyophilized. Working solution was reconstituted with DDW and the concentration of solution was confirmed spectrophotometrically. Alternatively, Clinical WST11 (batch: P00611, and 10-130611) was supplied as lyophilized formulation. Material was dissolved in 5% dextrose, aliquoted and stored at −20° C. At the day of treatment the aliquot was thawed, filtered and the concentration of solution was confirmed spectrophotometrically. • (ii) Chemotherapeutic drugs preparation and storage—Gemcitabine (GEM, Gemzar®, Lilly) was purchased from a local pharmacy as a powder, dissolved in saline to a concentration of 38 mg/ml, aliquoted and stored at −20° C. Aliquots were thawed, diluted with saline to a desired concentration and used on the same day at a dose of 75 mg/kg. Cyclophosphamide (CTX, Endoxan®, Baxter Oncology Gmbh, Germany) was purchased from a local pharmacy. A stock solution of 20 mg/ml was prepared by dissolving in 0.9% NaCl, aliquoted and stored at −20° C. Aliquots were thawed, diluted with saline if needed to a desired concentration and used on the same day prepared at indicated doses. • (iii) Murine cell lines—Mammary luciferase (luc)-labeled 4T1 cell line (4T1-Luc) was a kind gift from Dr. Zvi Granot (Faculty of Medicine, The Hebrew University of Jerusalem, Israel); melanoma B16-F10 cell line was obtained from the American Type Culture Collection (ATCC, Manassas, Va.); bladder MB49 cell line was a kind gift from James Allison (MSKCC, New York, USA), and luc-labeled MB49-cell line was established using the murine stem cell virus (MSCV)-puromycin-luc-GFP construct (kindly provided by Dr. Emily Cheng, Human Oncology and Pathogenesis Program, MSKCC). 4T1 and MB49 cells were maintained in DMEM medium and B16-F10 cells in RPMI medium supplemented with 1 mmol/L sodium pyruvate, 10% fetal calf serum (FCS), 250 μg/ml hygromycin, 0.06 mg/ml penicillin and 0.1 mg/ml streptomycin. The cells were grown as monolayer at 37° C. in a humidified atmosphere (5% CO2, 95% air). • (iv) Murine tumor models—Female, Balb/c mice (6-8 week old) were grafted either subcutaneously (s.c.) into the right hind leg or orthotopically with 1×10^6 4T1 cells suspended in 50 or 1000 PBS. For the rechallenge study, 2×10^5 4T1 cells were orthotopically grafted. For bladder cancer model, 5×10^4 of MB49 or MB49-luciferase cell line were s.c. injected into the right flank of C57B/6 male mice (7-8 weeks old, Taconic, Hudson, N.Y.) 15 days prior to VTP treatment. For the efficacy study of VTP in immune compromised mice, the same number of MB49 cells was injected in the flank of Rag^−/− on C57B/6 background or C57B/6 male mice (7-8 week old, Jackson Laboratory, Bar Harbor, Me.). […] Whole body imaging of luciferase-transfected tumors and metastases were recorded five minutes following 75 mg Kg^−1 intraperitoneal (i.p.) injection of D-luciferin with respective filter sets. • (vi) PDT treatment protocol: 4T1-Luc cells were grafted in the mammary pad of Balb/c mice. […]

[2] = system: 4T1-luc tumors at the mammary pad; experiment: WST11 VTP combined with CTX or Gemzar in mice bearing 4T1-luc tumors in the mammary pad (Scheme 5); assay type: in vivo, Balb/C mice; settings: VTP alone, 9 mg/kg WST11, 200 mW/cm^2 for 15 min
Procedure: • (i) Bacteriochlorophyll Derivatives—The Bchl derivatives and RGD-conjugates thereof were provided by Steba Biotech (Rehovot, Israel). […] Concentration was verified by spectrophotometric measurement. STL-7012 was provided as dipotassium salt. Working solution was prepared by dissolving STL-7012 K^+ salt in 5% mannitol solution (1 mg/ml). […] WST11 was supplied as a powder and kept in the dark at −20° C. Stock was prepared by dissolving WST11 in DDW containing 5% glucose and 0.67% mannitol, aliquoted and lyophilized. Working solution was reconstituted with DDW and the concentration of solution was confirmed spectrophotometrically. Alternatively, Clinical WST11 (batch: P00611, and 10-130611) was supplied as lyophilized formulation. Material was dissolved in 5% dextrose, aliquoted and stored at −20° C. […] Whole body imaging of luciferase-transfected tumors and metastases were recorded five minutes following 75 mg Kg^−1 intraperitoneal (i.p.) injection of D-luciferin with respective filter sets. • (vi) PDT treatment protocol: 4T1-Luc cells were grafted in the mammary pad of Balb/c mice. […]

Q: For `Nc1ccn([C@@H]2O[C@H](CO)[C@@H](O)C2(F)F)c(=O)n1` [Gemzar, Gemcitabine], which “percentage of G-MDSC/neutrophils and M-MDSC in spleen compared to control” value ([1]; first week post treatment) is on record?
A: significantly reduced

Q: And the “effect on Treg populations in spleen compared with controls” value ([1]; mouse, in vivo)?
A: Much smaller effects

Q: And the “impact on MDSCs in spleen relative to control” value ([1]; second week post treatment)?
A: diminished

Q: How did the survival [2] turn out when `CCC1c2cc3[n-]c(c(CC(=O)OC)c4nc(cc5[n-]c(cc(n2)C1C)c(C(C)=O)c5C)C(C)C4CCC(=O)[O-])c(C(=O)NCCS(=O)(=O)[O-])c3C.[K+].[K+].[Pd+2]` (stereo not shown) [WST11, Palladium 3^1-oxo-15-methoxycarbonylmethyl-rhodobacteriochlorin 13^1-(2-sulfoethyl) amide dipotassium salt] was run?
A: very limited survival
